What was measured:
HDAC6 = target: T1, HDAC6 (Homo sapiens, UniProt Q9UBN7); test: HDAC activity assay (microfluidics mobility shift), HDAC6; format: biochemical; details: for HDAC1/HDAC6 (HDAC1 IC50/HDAC6 IC50, selectivity for HDAC6) / IC50: covalent dual inhibitors; for inhibition at 1 µM: compound concentration 1 μM, non-covalent dual inhibitors
T1 sequence (Q9UBN7 1-1215): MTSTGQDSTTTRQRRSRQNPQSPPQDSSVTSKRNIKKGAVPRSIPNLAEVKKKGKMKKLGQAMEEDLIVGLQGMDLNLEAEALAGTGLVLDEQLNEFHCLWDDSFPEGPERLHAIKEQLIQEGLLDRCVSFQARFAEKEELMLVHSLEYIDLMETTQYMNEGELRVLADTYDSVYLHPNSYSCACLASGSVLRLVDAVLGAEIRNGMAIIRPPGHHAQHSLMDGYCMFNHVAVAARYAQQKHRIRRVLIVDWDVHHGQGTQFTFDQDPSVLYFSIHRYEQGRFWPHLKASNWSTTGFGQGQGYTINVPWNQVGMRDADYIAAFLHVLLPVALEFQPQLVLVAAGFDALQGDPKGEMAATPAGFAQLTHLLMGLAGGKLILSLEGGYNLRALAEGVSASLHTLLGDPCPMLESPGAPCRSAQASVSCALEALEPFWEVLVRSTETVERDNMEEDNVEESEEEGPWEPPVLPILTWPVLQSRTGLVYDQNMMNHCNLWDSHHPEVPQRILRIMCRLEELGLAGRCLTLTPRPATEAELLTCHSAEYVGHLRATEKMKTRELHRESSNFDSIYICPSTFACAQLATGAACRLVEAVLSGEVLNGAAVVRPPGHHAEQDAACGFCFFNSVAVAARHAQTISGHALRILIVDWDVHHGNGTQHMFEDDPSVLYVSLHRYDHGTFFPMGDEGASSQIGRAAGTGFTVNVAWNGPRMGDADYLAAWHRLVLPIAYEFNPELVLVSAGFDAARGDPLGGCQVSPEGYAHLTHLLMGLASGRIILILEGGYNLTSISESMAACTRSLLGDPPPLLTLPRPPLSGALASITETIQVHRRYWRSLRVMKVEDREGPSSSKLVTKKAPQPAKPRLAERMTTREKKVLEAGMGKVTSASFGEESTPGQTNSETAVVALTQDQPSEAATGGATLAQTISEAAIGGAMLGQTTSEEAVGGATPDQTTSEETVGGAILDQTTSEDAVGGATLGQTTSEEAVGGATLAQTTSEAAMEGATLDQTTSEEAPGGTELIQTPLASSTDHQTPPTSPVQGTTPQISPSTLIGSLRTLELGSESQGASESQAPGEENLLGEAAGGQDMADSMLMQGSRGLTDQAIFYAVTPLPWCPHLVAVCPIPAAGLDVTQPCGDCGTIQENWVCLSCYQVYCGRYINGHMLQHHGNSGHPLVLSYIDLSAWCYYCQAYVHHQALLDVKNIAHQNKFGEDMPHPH
Experimental: (§1) HDAC ACTIVITY ASSAYS: HDAC activity is measured using a microfluidics mobility shift platform. A fluorescently labeled substrate is reacted with the enzyme along with addition of test compounds followed by reading through microfluidic chips. Enzyme activity is determined through quantitative comparison of the […] that results from enzymatic activity.
(§2) The concentration of each non-covalent inhibitor compound tested in this study was 1 μM.

HDAC1 = HDAC1 (Homo sapiens, UniProt Q13547); test: HDAC activity assay (microfluidics mobility shift), HDAC1; format: biochemical; details: compound concentration 1 μM; non-covalent dual inhibitors
Experimental: as §1, §2

Chain of HDAC1 (Q13547 whole entry): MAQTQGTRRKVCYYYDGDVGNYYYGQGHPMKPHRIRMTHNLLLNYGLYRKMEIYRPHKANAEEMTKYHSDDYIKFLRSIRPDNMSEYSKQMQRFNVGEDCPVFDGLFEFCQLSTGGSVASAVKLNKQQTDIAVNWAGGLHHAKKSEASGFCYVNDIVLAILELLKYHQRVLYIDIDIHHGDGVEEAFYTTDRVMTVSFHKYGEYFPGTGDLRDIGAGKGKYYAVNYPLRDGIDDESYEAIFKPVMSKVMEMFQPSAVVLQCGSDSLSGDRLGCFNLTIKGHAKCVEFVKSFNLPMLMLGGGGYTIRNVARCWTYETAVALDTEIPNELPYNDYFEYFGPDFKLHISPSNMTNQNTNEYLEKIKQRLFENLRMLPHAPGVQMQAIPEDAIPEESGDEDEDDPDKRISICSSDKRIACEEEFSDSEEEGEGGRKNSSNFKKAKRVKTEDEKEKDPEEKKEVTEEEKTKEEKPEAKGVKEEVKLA

Structure (SMILES) | HDAC1/HDAC6 (HDAC1 IC50/HDAC6 IC50, selectivity for HDAC6) (HDAC6) | IC50 (HDAC6) | inhibition at 1 µM (HDAC6) | inhibition at 1 µM (HDAC1) | potency and selectivity for HDAC6 (HDAC6; FIG. 11, fold improvement over HDAC1 inhibition)
CCNC(=O)ONC(=O)c1ccc(C(=O)NCC(=O)N[C@@H](CC(C)C)B2OC3C[C@H]4C[C@H](C4(C)C)[C@@]3(C)O2)cc1 (stereo partly drawn) [AMC-3-048] | >5.58 | 5380 nM |  |  | 
CC(C)C[C@H](NC(=O)CNC(=O)c1ccc(C(=O)NOC(=O)Nc2ccccc2)cc1)B1OC2C[C@H]3C[C@H](C3(C)C)[C@@]2(C)O1 (stereo partly drawn) [AMC-3-030] | >33.9 | 884 nM |  |  | 
CC(C)C[C@H](NC(=O)[C@H](Cc1ccccc1)NC(=O)c1ccc(C(=O)NOC2CCCCO2)cc1)B1OC2C[C@H]3C[C@H](C3(C)C)[C@@]2(C)O1 (stereo partly drawn) [AMC-2-248] |  | > 30000 nM |  |  | 
C[C@H](NC(=O)[C@H](CC(=O)NCC(C)(C)C)NC(=O)CCCCCCC(=O)NO)C(=O)NCc1ccc(F)cc1F [AMC-2-067] |  |  | 86% | 74% | 
CC(C)C[C@H](NC(=O)[C@H](Cc1ccccc1)NC(=O)c1ccc(C(=O)NO)cc1)B1OC2C[C@H]3C[C@H](C3(C)C)[C@@]2(C)O1 (stereo partly drawn) [AMC-3-017] | 14.3 | 198 nM |  |  | 
C[C@H](NC(=O)[C@H](CC(=O)NCC(C)(C)C)NC(=O)C(=O)c1c[nH]c2ccccc12)C(=O)NCc1ccc(F)cc1F [AMC-2-052] |  |  | 59% | 41% | 
CC(C)C[C@H](NC(=O)CNC(=O)c1ccc(C(=O)NOC(=O)NCc2ccccc2)cc1)B1OC2C[C@H]3C[C@H](C3(C)C)[C@@]2(C)O1 (stereo partly drawn) [AMC-3-047] | 8.77 | 3420 nM |  |  | 
C[C@H](NC(=O)[C@H](CC(=O)NCC(C)(C)C)NC(=O)CCCCCCC(=O)O)C(=O)NCc1ccc(F)cc1F [AMC-2-204] |  |  | 8% | 3% | 
CCNC(=O)ONC(=O)/C=C/c1ccc(C(=O)NCC(=O)N[C@@H](CC(C)C)B2OC3C[C@H]4C[C@H](C4(C)C)[C@@]3(C)O2)cc1 (stereo partly drawn) [AMC-3-055] | 2.30 | 1150 nM |  |  | 
C[C@H](NC(=O)[C@H](CC(=O)NCC(C)(C)C)NC(=O)c1ccc(C(=O)O)cc1)C(=O)NCc1ccc(F)cc1F [AMC-2-225] |  |  | 4% | -3% | 
CCNC(=O)ONC(=O)c1ccc(C(=O)N[C@@H](Cc2ccccc2)C(=O)N[C@@H](CC(C)C)B2OC3C[C@H]4C[C@H](C4(C)C)[C@@]3(C)O2)cc1 (stereo partly drawn) [AMC-3-019] | >3.69 | 8120 nM |  |  | 
CC(C)C[C@H](NC(=O)[C@H](Cc1ccccc1)NC(=O)c1ccc(/C=C/C(=O)NO)cc1)B1OC2C[C@H]3C[C@H](C3(C)C)[C@@]2(C)O1 (stereo partly drawn) [AMC-3-041] | 0.93 | 61 nM |  |  | 
CC(C)C[C@H](NC(=O)[C@H](Cc1ccccc1)NC(=O)c1ccc(C(=O)NOC(=O)NCc2ccccc2)cc1)B1OC2C[C@H]3C[C@H](C3(C)C)[C@@]2(C)O1 (stereo partly drawn) [AMC-3-033] | 4.75 | 6320 nM |  |  | 
C[C@H](NC(=O)[C@H](CC(=O)NCC(C)(C)C)NC(=O)c1ccc(C(=O)Nc2ccccc2N)cc1)C(=O)NCc1ccc(F)cc1F [AMC-2-091] |  |  | 13% | 65% | 
CC(C)C[C@H](NC(=O)CNC(=O)c1ccc(C(=O)NO)cc1)B1OC2C[C@H]3C[C@H](C3(C)C)[C@@]2(C)O1 (stereo partly drawn) [AMC-3-031] | 20.4 | 258 nM |  |  | 
COC(=O)c1ccc(C(=O)N[C@@H](CC(=O)NCC(C)(C)C)C(=O)N[C@@H](C)C(=O)NCc2ccc(F)cc2F)cc1 [AMC-2-152] |  |  | 18% | 3% | 
COC(=O)CCCCCCC(=O)N[C@@H](CC(=O)NCC(C)(C)C)C(=O)N[C@@H](C)C(=O)NCc1ccc(F)cc1F [AMC-2-198] |  |  | 8% | 1% | 
C[C@H](NC(=O)[C@H](CC(=O)NCC(C)(C)C)NC(=O)CCC(=O)Nc1ccc(C(=O)NO)cc1)C(=O)NCc1ccc(F)cc1F [AMC-2-036] |  |  | 95% | 61% | highly potent

— patent US20230159569A1, “DUAL HDAC6/PROTEASOME INHIBITORS, AND METHODS OF USE THEREOF” (UNIVERSITY OF MARYLAND, BALTIMORE, priority 2021, published 2023)
